Measured values from patent US8252294B2, “Methods of screening for compounds that inhibit the biosynthesis of GPI in malaria parasites” (Eisai R&D Management Co., Ltd., priority 2002, dated 2012).

What was measured:
[1] = test system: ScGWT1-expressing yeast; experiment: Growth inhibition of GWT1-disrupted yeast expressing S. cerevisiae GWT1 (pGAP-ScGWT1), culture turbidity; format: cell-based; details: for culture turbidity at 660 nm: pGAP-ScGWT1 yeast, 30° C., two days
Method: (§1) An expression cassette was constructed by inserting the S. cerevisiae GWT1 terminator, and the S. cerevisiae GAPDH promoter and multi-cloning site into the SacI-KpnI site of the single-copy vector pRS316. S. cerevisiae GWT1 and opfGWT1 were inserted into the multi-cloning site to prepare pGAP-ScGWT1 and pGAP-opfGWT1 plasmids, respectively. These plasmids were introduced into the GWT1 disruptant. Serial two-fold dilutions of compound (1) were prepared using YPAD to make the highest final concentration 50 μg/ml. A 50 μl aliquot of the diluted compound was added to each well of a 96-well plate. Overnight cultures of yeast cells comprising each plasmid were diluted 1000-fold and then a 50 μl aliquot of the dilution was added to each well. The plates were incubated at 30° C. for two days, and then culture turbidity was determined at 660 nm (FIG. 2 and Table 1).

[2] = test system: opfGWT1-expressing yeast; experiment: Growth inhibition of GWT1-disrupted yeast expressing opfGWT1 (pGAP-opfGWT1), culture turbidity; format: cell-based, S. cerevisiae; details: for culture turbidity at 660 nm: pGAP-opfGWT1 yeast, 30° C., two days
Method: as §1

[3] = test system: P. falciparum FCR3 strain; experiment: Antimalarial activity in red blood cell culture system (infection rate by Giemsa staining); format: cell-based; details: human red blood cells infected with P. falciparum FCR3, 48 hours, Giemsa staining (FIG. 3)
Method: Specifically, a test compound was dissolved in 100% DMSO, diluted with a medium, and an 80 μl aliquot of the dilution was added to each well of a 96-well culture plate. P. falciparum FCR3 strain was pre-cultured in RPMI1640 medium containing 10% human serum at 37° C., and then 20 μl of the cultured cells (containing 10% red blood cells) was added to each well. At this time, 0.47% of red blood cells were infected. After culturing under 5% O2, 5% CO2, and 90% N2 at 37° C. for 48 hours, the malaria parasites were stained using Giemsa staining. The number of protozoan-infected red blood cells was determined in order to estimate infection rate (FIG. 3).

Structure (SMILES) | inhibition at 25 µg/mL ([1]; Saccharomyces cerevisiae, ScGWT1-expressing yeast, compound at 25 μg/ml) [%] | viability of yeast ([1]; ScGWT1-expressing yeast, compound at 50 μg/ml) | culture turbidity at 660 nm ([1]; compound 6.25 μg/ml) | culture turbidity at 660 nm ([1]; compound 12.5 μg/ml) | culture turbidity at 660 nm ([1]; compound 25 μg/ml) | culture turbidity at 660 nm ([1]; compound 50 μg/ml) | inhibition at 25 µg/mL ([2]; Saccharomyces cerevisiae, opfGWT1-expressing yeast, compound at 25 μg/ml) [%] | viability of yeast ([2]; opfGWT1-expressing yeast, compound at 50 μg/ml) | culture turbidity at 660 nm ([2]; compound 6.25 μg/ml) | culture turbidity at 660 nm ([2]; compound 12.5 μg/ml) | culture turbidity at 660 nm ([2]; compound 25 μg/ml) | culture turbidity at 660 nm ([2]; compound 50 μg/ml) | antimalarial activity (infection rate of red blood cells) [3]
CCCCc1ccc(Cc2nccc3ccccc23)cc1 [compound (1), 1-(4-butylbenzyl) isoquinoline] | ~85 | completely nonviable | 0.7370 | 0.6670 | 0.1140 | 0.0420 | ~50 | completely nonviable | 0.6990 | 0.6910 | 0.3630 | 0.0530 | –
CCCCc1ccc(Cc2nccc3ccccc23)c(O)c1 [compound (3), 5-butyl-2-(1-isoquinolylmethyl) phenol] | – | – | – | – | – | – | – | – | – | – | – | – | strong antimalarial activity
COc1cccnc1Cc1ccc(Br)cc1F [compound (4), 2-(4-bromo-2-fluorobenzyl)-3-methoxypyridine] | – | – | – | – | – | – | – | – | – | – | – | – | lowest activity
